Results taken from patent US20030203899A1, “Drugs for incontinence” (priority 2000, published 2003).
Counter-ions that a name gives are not always drawn.

System: strips of urinary guinea-pig bladder contracted with carbacol
Experiment: Inhibition of bladder contraction: relaxation of guinea-pig urinary bladder strips contracted with carbacol, in vitro
Type: cell-based
Conditions: strips contracted with carbacol 10^−6 M, placebo = 100
Source text: The activity in the urinary incontinence of the compounds according to the present invention has been evaluated in an experimental model of inhibition of the bladder contraction.
The degree of the relaxation induced in the urinary bladder is a measure of the inhibitory action of the urinary incontinence of the drugs described in the present application.
Guinea-pigs of male sex having an average weight equal to 300-500 g were sacrificed and bled. The urinary bladder was removed and prepared for determining the myorelaxing activity in vitro, according to the method described by L. Nilvenbrant, Eur. J. Pharmacol. 327,195-207, 1997.
The obtained tissue strips were contracted with carbacol 10^−6 M in phisiological solution and the relaxation was determined in the presence of the compounds indicated in Table 1 at the concentrations mentioned therein. The 2-(acetyloxy) benzoic acid 6-(nitroxymethyl)-2-methylpyridyl ester hydrochloride was prepared according to Example 1 of patent application PCT/EP 00/01454 (NCX 4050).

## CC(=O)Oc1ccccc1C(=O)Oc1ccc(CO[N+](=O)[O-])nc1C.Cl [NCX 4050, 2-(acetyloxy) benzoic acid 6-(nitroxymethyl)-2-methylpyridyl ester hydrochloride]
Compound 3 × 10 − 5 M
  Bladder strip contraction, % of placebo: 71%

## CCN(CC)CC#CCOC(=O)C(O)(c1ccccc1)C1CCCCC1 (centres unmarked) [Oxybutynin Hydrochloride (Comp), oxybutynin hydrochloride, reference compound]
Compound 10^−6 M
  Bladder strip contraction, % of placebo: 30%

## CCCc1nn(C)c2c(=O)[nH]c(-c3cc(S(=O)(=O)N4CCN(C)CC4)ccc3OCC)nc12 [Sildenafil Citrate, sildenafil citrate, reference compound]
Compound 3 × 10 − 5 M
  Bladder strip contraction, % of placebo: 52%

## oxybutynin nitrate salt
Compound 10^−6 M
  Bladder strip contraction, % of placebo: 0%

## sildenafil nitrate salt
Compound 3 × 10 − 5 M
  Bladder strip contraction, % of placebo: 31%
